{"source": "patent US8828678B2", "about": "“Self-immolative probes for enzyme activity detection” (Enzo Life Sciences, Inc., priority 2010, dated 2014)", "type_in_all_cases": "cell-based, human", "key": {"Jurkat cells [1]": {"tested_on": "Jurkat cells", "experiment": "Detection of hypoxia using flow cytometry", "settings": "5 μM CD-1, 1 μM CD-6, versus vehicle-treated loaded cells", "description": "HeLa and U-2 OS cells were cultured as described in Example 7. Human Jurkat T-cell leukemia cells (the A3 subclone) was obtained from ATCC and routinely cultured in RPMI-1640 medium (ATCC) supplemented with 10% fetal bovine serum (ATCC) and 100 U/ml penicillin+100 μg/ml streptomycin (Sigma-Aldrich). Cell cultures were maintained in an incubator at 37° C., with 5% CO2 atmosphere. CD-1, CD-4 and CD-6 self-immolative hypoxia probes were prepared as described in Example 8. All hypoxia inducers stocks were prepared as described in Example 7.\nThe day before the experiment, HeLa and U-2 OS cells were seeded in 6-well tissue culture plates at a density 5×10^5 cells/well. […] Post-treatment, the adherent cells (HeLa and U-2 OS) were collected by trypsinization, re-suspended in 0.5 mL of fresh PBS and analyzed using flow cytometry. Jurkat cells were analyzed without washing.\nFlow cytometry experiments were performed using a FACS Calibur benchtop flow cytometer (BD Biosciences) equipped with a blue (488 nm) laser, and the fluorescence was recorded in the FITC (530/30 filter), PE (585/42 filter) and PerCP (670 LP filter) channels. Hypoxic cells were detected by detecting increases in fluorescence. The degree of hypoxia (Khyp) can be quantified by using Kolmogorov-Smirnov statistics (Young, 1977) or the following formula: Khyp=(MFIhyp−MFIcon)/MFIhyp, […]"}, "HeLa cells": {"tested_on": "HeLa cells", "experiment": "Combined detection of hypoxia and redox status in live cells by fluorescent microscopy", "settings": "5 μM; all four hypoxic samples (anoxia, CoCl2, DFO, DMOG)", "description": "HeLa and U-2 OS cells were cultured as described in Example 7. Stock solutions of CD-1 and CD-5 and various hypoxia inducers were prepared and stored as described in Examples 7 and 8. Additionally, 5 mM stock solutions (5000×) of 2′,7′-dichloro-fluorescein diacetate (DCFDA, an indicator of global ROS generation) and dihydroethidium (DHE, specific indicator of superoxide generation) were made in anhydrous DMF. DMSO was avoided, since this solvent is a hydroxyl radical scavenger and its presence may affect ROS/RNS production in cellular systems. The following stocks of ROS inducers were prepared in DMF: 10 mM pyocyanin (general ROS generating compound, 100×), 20 mM antimycin A (general ROS inducer, 400×), 50 mM pyrogallol (a superoxide radical generator, 1000×), 1 mM t-butyl hydroperoxide (TBHP, peroxide radical inducer, 10,000×). ROS probes and inducers were aliquoted and stored at −80° C.\nThe day before the experiment, the cells were seeded on 4-well microscope slides (Cel-Line™ Brand, Portsmouth, N.H.) at a density 1×10^4 cells/well (2×10^4 cells/cm^2). On the day of the experiment, the cells were preloaded with both hypoxia probe (5 μM final concentration in cell culture medium) and ROS detecting reagent with suitable spectral characteristics. Two ROS-detecting probes, DCFDA and DHE, were used in a pilot experiment in conjunction with hypoxia self-immolative probes. The hydrolyzed product of DCFDA, DCFH, is considered to be a general indicator of ROS, reacting with H2O2 (in the presence of peroxidases), ONOO^−, lipid hydroperoxides, and hydroxyl radicals. The oxidized product can be detected by strong fluorescence emission at around 525 nm when excited at around 488 nm. Because H2O2 is a secondary product of O2.^−, DCFH fluorescence has been used to implicate O2.^− production. The direct reaction of DHE with O2.^− yields a very specific fluorescent product, requiring no conversion to H2O2. The product of the DHE reaction with O2.^− fluoresces strongly at around 600 nm when excited at 500-530 nm.\nTested pairs of the probes were as follows: CD-5 with DCFDA or DHE, and CD-1 with DHE. A hypoxic state was induced in the cells as described in Example 7. Control slides were singly-stained with hypoxia or ROS-detecting probes only. Additional slides were treated with different general and specific ROS inducers and stained with ROS-detecting probes to control ROS staining. Post-treatment, the slides were washed twice with PBS, coverslipped and visualized using an Olympus BX-51 fluorescence microscope and a DAPI filter set (350 ex/470em) for CD-5, an FITC filter set (490ex/525em) for CD-1 or for total ROS detection reagent, and an orange filter set (550ex/620em) for HE."}, "Jurkat cells [2]": {"tested_on": "Jurkat cells", "experiment": "Combined detection of hypoxia and superoxide in live cells by flow cytometry", "settings": "CD-1 5 μM in combination with superoxide detection reagent, flow cytometry", "description": "HeLa, U-2 OS, and Jurkat cell lines were cultured as described in Examples 7 and 9. Stock solutions of the probes and inhibitors were prepared as described in Examples 7 and 10.\nThe day before the experiment, HeLa and U-2 OS cells were seeded in 6-well tissue culture plates at a density of 5×10^5 cells/well. Jurkat cells were collected in logarithmic phase of growth and aliquoted at a density of 5×10^5 cells/sample. On the day of the experiment, the cells were preloaded with either hypoxia or ROS-detecting probes only or with the combination of hypoxia and ROS-detecting probes with compatible spectral characteristics. Samples stained with single hypoxia probes or with two ROS-detecting probes were made to validate data obtained with the combination of hypoxia and redox probes. The probes used in the experiment and their final concentrations in cell culture medium were as follows: CD-1(5 μM) and CD-6 (1 μM), DCFDA, peroxide/peroxynitrite/hydroxyl detection probe and HE, specific superoxide detection reagent (1 μM for both redox probes). Hypoxia was induced in the cells as described in Example 7. Additionally, cells were treated with different general and specific ROS inducers and stained with ROS-detecting probes to control ROS production and staining. Post-treatment, the adherent cells (HeLa and U-2 OS) were collected by trypsinization, re-suspended in 0.5 mL of fresh PBS and analyzed using flow cytometry. Jurkat cells were analyzed without washing. Flow cytometry experiments were performed using an FACS Calibur benchtop flow cytometer (BD Biosciences) equipped with a blue (488 nm) laser, and the fluorescence was recorded in the FITC (530/30 filter), PE (585/42 filter) and PerCP (670 LP filter) channels. Data were collected uncompensated, also compensation corrections were performed using unstained cells, and cells stained with each single dye separately (CD-1, CD-6, DCFDA or HE). To quantify data, quadrant gates were set using untreated samples."}}}
{"smiles": "O=C(Nc1ccc2c(c1)Oc1cc(NC(=O)N3CCOCC3)ccc1C21OC(=O)c2ccccc21)OCc1ccc([N+](=O)[O-])cc1", "note": "(stereo not drawn) [CD-1]", "values": [{"measurement": "fluorescence in Jurkat cells treated with chemical hypoxia inducers or subjected to anoxia", "setting": "Jurkat cells [1]", "result": "fluorescence increase"}, {"measurement": "hypoxia probe fluorescent signal in hypoxic HeLa cells, multiplexed with ROS dyes", "setting": "HeLa cells", "result": "bright fluorescent signal"}, {"measurement": "population of green positive cells in hypoxia-induced Jurkat samples", "setting": "Jurkat cells [2]", "result": "increased population of green positive cells"}]}
